Results: ChEMBL document CHEMBL1156596, “Overcoming undesirable CYP1A2 inhibition of pyridylnaphthalene-type aldosterone synthase inhibitors: influence of heteroaryl derivatization on potency and selectivity” (J Med Chem, 2008)

Tests used:
[1] = organism: Homo sapiens; test: Selectivity ratio of IC50 for human CYP11B1 to IC50 for human CYP11B2
[2] = molecular target: T1, CYP1A2 (Homo sapiens, UniProt P05177); test: Inhibition of human recombinant CYP1A2 expressed in insect microsomes at 2 uM; assay type: ADME, Microsome
T1 sequence (P05177 whole entry): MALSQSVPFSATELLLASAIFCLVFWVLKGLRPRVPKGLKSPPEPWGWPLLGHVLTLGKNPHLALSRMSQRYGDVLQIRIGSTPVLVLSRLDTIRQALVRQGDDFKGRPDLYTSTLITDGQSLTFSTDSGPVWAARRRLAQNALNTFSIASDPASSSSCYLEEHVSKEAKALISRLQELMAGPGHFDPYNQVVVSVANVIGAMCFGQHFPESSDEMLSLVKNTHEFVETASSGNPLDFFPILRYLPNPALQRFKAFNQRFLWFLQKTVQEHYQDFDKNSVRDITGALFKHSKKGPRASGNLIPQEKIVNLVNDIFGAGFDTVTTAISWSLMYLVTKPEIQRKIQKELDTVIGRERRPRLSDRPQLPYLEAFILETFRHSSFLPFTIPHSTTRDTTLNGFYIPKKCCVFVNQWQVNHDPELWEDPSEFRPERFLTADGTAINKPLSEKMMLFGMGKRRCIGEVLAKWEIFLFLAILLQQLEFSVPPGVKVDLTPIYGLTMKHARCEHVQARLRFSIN

[3] = molecular target: T2, CYP17 (Homo sapiens, UniProt P05093); test: Inhibition of human recombinant CYP17 expressed in Escherichia coli at 2 uM
T2 sequence (P05093 whole entry): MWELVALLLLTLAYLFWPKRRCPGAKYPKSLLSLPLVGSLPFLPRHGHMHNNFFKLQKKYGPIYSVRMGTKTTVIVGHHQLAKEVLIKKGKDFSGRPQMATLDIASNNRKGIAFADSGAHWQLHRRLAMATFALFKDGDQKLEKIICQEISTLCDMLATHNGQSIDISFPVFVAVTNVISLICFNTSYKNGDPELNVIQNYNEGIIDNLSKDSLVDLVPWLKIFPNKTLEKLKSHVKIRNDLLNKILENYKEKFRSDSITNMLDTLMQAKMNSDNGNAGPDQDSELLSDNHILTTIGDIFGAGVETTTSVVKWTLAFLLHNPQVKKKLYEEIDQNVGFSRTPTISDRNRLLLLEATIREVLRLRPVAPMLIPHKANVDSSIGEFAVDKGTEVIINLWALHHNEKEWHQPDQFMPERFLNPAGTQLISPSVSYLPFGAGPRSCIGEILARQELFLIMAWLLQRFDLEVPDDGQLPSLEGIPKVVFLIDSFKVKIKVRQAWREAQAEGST

[4] = molecular target: T3, CYP19 (aromatase) (Homo sapiens, UniProt P11511); test: Inhibition of human placental CYP19 at 500 nM
T3 sequence (P11511 whole entry): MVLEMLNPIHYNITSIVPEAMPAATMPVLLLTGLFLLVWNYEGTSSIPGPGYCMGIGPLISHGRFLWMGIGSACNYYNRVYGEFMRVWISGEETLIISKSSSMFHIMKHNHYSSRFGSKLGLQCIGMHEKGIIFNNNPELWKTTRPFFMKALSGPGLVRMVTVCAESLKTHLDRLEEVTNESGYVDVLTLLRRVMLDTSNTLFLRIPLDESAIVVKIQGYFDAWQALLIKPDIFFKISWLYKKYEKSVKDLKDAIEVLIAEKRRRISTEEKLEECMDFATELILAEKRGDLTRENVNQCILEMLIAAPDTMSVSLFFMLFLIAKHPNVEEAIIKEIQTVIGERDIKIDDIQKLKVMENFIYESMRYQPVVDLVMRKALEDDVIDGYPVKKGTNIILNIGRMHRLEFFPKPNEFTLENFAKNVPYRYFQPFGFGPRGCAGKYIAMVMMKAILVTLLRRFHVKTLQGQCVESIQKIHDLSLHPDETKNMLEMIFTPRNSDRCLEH

[5] = molecular target: T4, Cytochrome P450 2B6 (Homo sapiens, UniProt P20813); test: Inhibition of human recombinant CYP2B6 expressed in insect microsomes; assay type: ADME, Microsome
T4 sequence (P20813 whole entry): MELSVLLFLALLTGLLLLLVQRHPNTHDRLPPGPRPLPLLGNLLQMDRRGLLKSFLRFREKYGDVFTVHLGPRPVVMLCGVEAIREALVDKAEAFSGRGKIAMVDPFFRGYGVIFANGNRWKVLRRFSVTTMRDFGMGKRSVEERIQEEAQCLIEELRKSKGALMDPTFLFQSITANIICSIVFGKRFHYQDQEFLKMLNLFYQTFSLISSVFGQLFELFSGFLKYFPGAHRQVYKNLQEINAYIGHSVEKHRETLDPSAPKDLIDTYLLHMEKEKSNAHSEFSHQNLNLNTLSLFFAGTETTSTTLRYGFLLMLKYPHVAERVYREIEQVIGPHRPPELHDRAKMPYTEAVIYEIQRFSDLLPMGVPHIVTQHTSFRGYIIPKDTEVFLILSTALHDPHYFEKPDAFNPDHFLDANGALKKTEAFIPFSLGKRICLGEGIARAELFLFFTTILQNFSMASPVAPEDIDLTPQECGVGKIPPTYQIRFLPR

[6] = molecular target: Cytochrome P450 2C9 (Homo sapiens, UniProt P11712); test: Inhibition of human recombinant CYP2C9 expressed in insect microsomes; assay type: ADME, Microsome
[7] = molecular target: Cytochrome P450 2C19 (Homo sapiens, UniProt P33261); test: Inhibition of human recombinant CYP2C19 expressed in insect microsomes; assay type: ADME, Microsome
[8] = molecular target: Cytochrome P450 2D6 (Homo sapiens, UniProt P10635); test: Inhibition of human recombinant CYP2D6 expressed in insect microsomes; assay type: ADME, Microsome
[9] = molecular target: Cytochrome P450 3A4 (Homo sapiens, UniProt P08684); test: Inhibition of human recombinant CYP3A4 expressed in insect microsomes; assay type: ADME, Microsome
[10] = molecular target: T5, Cytochrome P450 11B2, mitochondrial (Homo sapiens, UniProt P19099)
T5 sequence (P19099 whole entry): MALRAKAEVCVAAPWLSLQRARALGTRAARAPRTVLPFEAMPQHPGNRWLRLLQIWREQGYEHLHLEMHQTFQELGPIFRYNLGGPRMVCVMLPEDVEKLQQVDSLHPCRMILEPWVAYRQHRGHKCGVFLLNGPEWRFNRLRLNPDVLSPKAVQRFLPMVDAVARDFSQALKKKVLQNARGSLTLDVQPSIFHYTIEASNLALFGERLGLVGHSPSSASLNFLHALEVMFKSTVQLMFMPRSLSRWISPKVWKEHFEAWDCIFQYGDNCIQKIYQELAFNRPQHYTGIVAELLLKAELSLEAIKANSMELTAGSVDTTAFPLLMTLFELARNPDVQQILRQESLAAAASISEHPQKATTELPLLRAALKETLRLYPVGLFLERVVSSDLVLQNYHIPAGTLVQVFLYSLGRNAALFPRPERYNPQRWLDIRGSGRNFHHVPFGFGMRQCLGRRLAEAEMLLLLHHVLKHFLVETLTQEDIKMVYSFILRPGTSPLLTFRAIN

[11] = molecular target: T6, Cytochrome P450 11B1, mitochondrial (Homo sapiens, UniProt P15538)
T6 sequence (P15538 whole entry): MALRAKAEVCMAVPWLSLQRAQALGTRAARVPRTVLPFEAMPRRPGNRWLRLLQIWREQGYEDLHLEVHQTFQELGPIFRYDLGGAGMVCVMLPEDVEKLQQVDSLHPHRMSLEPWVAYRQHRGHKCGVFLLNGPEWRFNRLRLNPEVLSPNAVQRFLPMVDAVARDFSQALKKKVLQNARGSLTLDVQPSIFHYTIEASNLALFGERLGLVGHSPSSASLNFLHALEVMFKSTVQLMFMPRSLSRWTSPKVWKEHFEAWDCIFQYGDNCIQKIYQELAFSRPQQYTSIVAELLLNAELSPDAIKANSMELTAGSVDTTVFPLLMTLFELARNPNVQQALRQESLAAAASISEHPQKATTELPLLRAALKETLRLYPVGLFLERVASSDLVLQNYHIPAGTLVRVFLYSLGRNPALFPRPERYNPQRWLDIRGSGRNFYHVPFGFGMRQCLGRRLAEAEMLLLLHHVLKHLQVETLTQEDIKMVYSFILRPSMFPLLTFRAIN

[12] = molecular target: T7, Cytochrome P450 1A2 (Homo sapiens, UniProt P05177)
T7 sequence (P05177 whole entry): T1 sequence (P05177 whole entry)

[13] = molecular target: T5, Cytochrome P450 11B2, mitochondrial; test: Inhibition of human CYP11B2 expressed in hamster V79 MZh cells at 500 nM; assay type: cell-based; details: V79MZh
[14] = Cmax in Wistar rat at 5 mg/kg, po; assay type: ADME, organism-based; set-up: dose 5 mg/kg, route oral; details: in vivo
[15] = molecular target: T8, CYP11B1 (Homo sapiens, UniProt P15538); test: in vitro; details: hamster V79 MZh cells expressing human CYP11B1
T8 sequence (P15538 whole entry): T6 sequence (P15538 whole entry)

[16] = Terminal half life in Wistar rat at 5 mg/kg, po; assay type: ADME, organism-based; set-up: dose 5 mg/kg, route oral; details: in vivo
[17] = Tmax in Wistar rat at 5 mg/kg, po; assay type: ADME, organism-based; set-up: dose 5 mg/kg, route oral; details: in vivo
[18] = in vivo; details: Wistar, rat, po, 5 mg/kg
[19] = Plasma concentration in Wistar rat plasma at 5 mg/kg, po after 1 hr; assay type: ADME, organism-based; set-up: dose 5 mg/kg, route oral
[20] = Plasma concentration in Wistar rat plasma at 5 mg/kg, po after 2 hrs; assay type: ADME, organism-based; set-up: dose 5 mg/kg, route oral
[21] = Plasma concentration in Wistar rat plasma at 5 mg/kg, po after 4 hrs; assay type: ADME, organism-based; set-up: dose 5 mg/kg, route oral
[22] = Plasma concentration in Wistar rat plasma at 5 mg/kg, po after 6 hrs; assay type: ADME, organism-based; set-up: dose 5 mg/kg, route oral
[23] = Plasma concentration in Wistar rat plasma at 5 mg/kg, po after 8 hrs; assay type: ADME, organism-based; set-up: dose 5 mg/kg, route oral

Cytochrome P450 2C9, sequence (P11712 whole entry): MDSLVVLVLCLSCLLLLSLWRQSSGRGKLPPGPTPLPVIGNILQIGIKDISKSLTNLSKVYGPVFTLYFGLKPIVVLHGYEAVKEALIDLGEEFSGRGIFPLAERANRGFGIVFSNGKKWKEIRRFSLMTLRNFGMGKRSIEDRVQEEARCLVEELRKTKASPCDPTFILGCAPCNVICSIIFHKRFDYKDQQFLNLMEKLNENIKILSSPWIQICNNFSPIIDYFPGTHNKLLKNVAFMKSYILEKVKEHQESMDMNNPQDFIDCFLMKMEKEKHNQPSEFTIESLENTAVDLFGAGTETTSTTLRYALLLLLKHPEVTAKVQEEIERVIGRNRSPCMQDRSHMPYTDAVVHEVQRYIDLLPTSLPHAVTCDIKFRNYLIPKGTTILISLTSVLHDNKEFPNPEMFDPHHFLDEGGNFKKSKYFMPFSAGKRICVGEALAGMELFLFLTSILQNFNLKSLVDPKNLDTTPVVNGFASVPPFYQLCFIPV
Cytochrome P450 2C19, sequence (P33261 whole entry): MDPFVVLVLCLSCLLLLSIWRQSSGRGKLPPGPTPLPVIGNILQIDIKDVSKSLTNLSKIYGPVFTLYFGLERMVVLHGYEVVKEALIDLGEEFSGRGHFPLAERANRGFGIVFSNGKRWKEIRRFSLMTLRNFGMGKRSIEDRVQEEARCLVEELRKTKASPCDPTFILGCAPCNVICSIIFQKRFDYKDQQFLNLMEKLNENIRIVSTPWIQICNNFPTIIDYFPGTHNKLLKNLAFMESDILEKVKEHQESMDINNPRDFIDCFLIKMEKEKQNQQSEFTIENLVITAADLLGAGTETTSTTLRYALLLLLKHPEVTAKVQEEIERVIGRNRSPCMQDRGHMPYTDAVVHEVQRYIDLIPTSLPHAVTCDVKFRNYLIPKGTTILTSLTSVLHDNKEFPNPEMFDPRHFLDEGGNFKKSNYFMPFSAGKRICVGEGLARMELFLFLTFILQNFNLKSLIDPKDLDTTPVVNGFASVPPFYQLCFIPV
Cytochrome P450 2D6, sequence (P10635 whole entry): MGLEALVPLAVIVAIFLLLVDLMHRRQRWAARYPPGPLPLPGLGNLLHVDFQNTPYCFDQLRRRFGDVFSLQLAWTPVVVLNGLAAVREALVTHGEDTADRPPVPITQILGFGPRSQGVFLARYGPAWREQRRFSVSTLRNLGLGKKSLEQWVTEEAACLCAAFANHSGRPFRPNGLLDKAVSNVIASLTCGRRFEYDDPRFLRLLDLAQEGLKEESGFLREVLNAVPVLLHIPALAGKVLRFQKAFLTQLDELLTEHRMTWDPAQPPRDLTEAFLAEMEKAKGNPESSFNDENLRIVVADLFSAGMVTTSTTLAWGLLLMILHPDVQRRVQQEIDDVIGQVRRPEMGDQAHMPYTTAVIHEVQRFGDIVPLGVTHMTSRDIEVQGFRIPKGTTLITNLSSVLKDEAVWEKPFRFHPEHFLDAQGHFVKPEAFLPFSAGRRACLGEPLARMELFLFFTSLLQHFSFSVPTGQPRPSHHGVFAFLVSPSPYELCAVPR
Cytochrome P450 3A4, sequence (P08684 whole entry): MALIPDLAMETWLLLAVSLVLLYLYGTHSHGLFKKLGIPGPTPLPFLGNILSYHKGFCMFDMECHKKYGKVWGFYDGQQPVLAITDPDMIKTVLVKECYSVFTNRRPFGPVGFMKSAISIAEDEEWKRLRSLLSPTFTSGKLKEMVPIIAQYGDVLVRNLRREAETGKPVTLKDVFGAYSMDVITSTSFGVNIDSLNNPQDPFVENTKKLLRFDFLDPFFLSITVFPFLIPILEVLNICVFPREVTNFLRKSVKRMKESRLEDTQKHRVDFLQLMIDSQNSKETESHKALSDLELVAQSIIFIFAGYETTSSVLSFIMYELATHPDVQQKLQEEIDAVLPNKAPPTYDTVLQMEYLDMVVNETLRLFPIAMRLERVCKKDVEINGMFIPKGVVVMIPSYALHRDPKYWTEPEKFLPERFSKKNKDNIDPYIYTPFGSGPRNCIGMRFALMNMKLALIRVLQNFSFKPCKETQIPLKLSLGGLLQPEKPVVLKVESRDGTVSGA

Ratio IC50 [1] | inhibition at 2 µM [2] [%] | inhibition at 2 µM [3] [%] | inhibition at 0.5 µM [4] [%] | IC50 [5] [nM] | IC50 [6] [nM] | IC50 [7] [nM] | IC50 [8] [nM] | IC50 [9] [nM] | IC50 [10] [nM] | IC50 [11] [nM] | IC50 [12] [nM] | Cmax [14] [ng/mL] | SMILES | other results
57 | 91 | 41 | 14 | > 25000 | 1890 | > 25000 | > 25000 | 1910 | 4.2 | 238 | 83 | – | COc1cncc(-c2ccc3cc(OC)ccc3c2)c1 | –
– | – | – | – | – | – | – | – | – | – | – | – | – | COc1ccc2cc(-c3cncc(C(=O)O)c3)ccc2c1 | inhibition at 0.5 µM [13]: 7%
117 | 58 | 42 | 47 | > 50000 | 49000 | 45800 | 11100 | 21100 | 13 | 1520 | 1420 | < 1.5 | COc1ccc2cc(-c3cnccc3N)ccc2c1 | –
239 | 97 | – | – | – | – | – | – | – | 2.9 | – | – | – | N#Cc1ccc2cc(-c3cccnc3)ccc2c1 | IC50 [15]: 691 nM
121 | 80 | 36 | < 5 | > 50000 | > 200000 | > 200000 | > 200000 | 9070 | 2.1 | 255 | 488 | – | COc1ccc2cc(-c3cncc(C(C)=O)c3)ccc2c1 | –
– | 8 | – | – | – | – | – | – | – | – | – | – | 454 | N#Cc1ccc(C2CCCc3cncn32)cc1 (configuration not stated) [FADROZOLE] | half-life [16]: 2.2 h; Tmax [17]: 1 h; AUC(0-inf) ([18]; in vivo): 3580 ng·h/mL
– | 98 | – | – | – | – | – | – | – | – | – | – | 222 | COc1ccc2cc(-c3cccnc3)ccc2c1 | half-life [16]: 5.4 h; concentration at 1 h [19]: 84.5 ng/mL; concentration at 2 h [20]: 145 ng/mL; concentration at 4 h [21]: 124 ng/mL; concentration at 6 h [22]: 133 ng/mL; concentration at 8 h [23]: 59.2 ng/mL; Tmax [17]: 1 h; AUC(0-inf) ([18]; plasma): 1540 ng·h/mL
